Data reported in patent publication US9107415B2, “2-(substituted-phenyl)-cyclopentane-1,3-dione compounds, and derivatives thereof” (Syngenta Limited, priority 2011, dated 2015).

What was measured:
Assay type in all cases: in vivo
[1] = system: grassy monocotyledonous weeds such as Lolium, Alopecurus, Echinochloa and/or Avena; experiment: Post-emergence herbicidal activity on grassy monocotyledonous weeds, summary statements (Biological Examples 1 to 4)
Poa annua (POAAN) = experiment: Biological Example 4A (previously-formulated compounds) post-emergence herbicidal activity on grassy weeds; details: 14 DAA, EC formulation, mean of two
Description: (§1) Seeds of a variety of test species are sown in standard soil in pots. After cultivation for 14 days under controlled conditions in a glasshouse (at 22/16°C., day/night; 16 hours light; 65% humidity), the plants are sprayed with the test compounds. The test plants are then grown on under controlled conditions in the glasshouse (at 22/16°C., day/night; 16 hours light; 65% humidity) and are watered twice daily. After 14 days the test is evaluated visually (100%=total damage to plant; 0%=no damage to plant). Post-emergence herbicidal activity (phytotoxicity) data, on certain grassy monocotyledonous weeds and cereal crops in a glasshouse, are measured 14 days after application of the herbicide (14 DAA), inter alia for post-emergence application rates of 30 or 60 g/ha of the test herbicide, with or without 50 g/ha of cloquintocet-mexyl safener applied at substantially the same time as the herbicide.
(§2) Herbicidal activity (phytotoxicity) is evaluated visually, and an assessed percentage phytotoxicity score is given for each herbicidal application on each plant species (with 100%=total damage to plant; 0%=no damage to plant). Two repetitions are made for each experiment and the mean herbicidal activity (phytotoxicity) data is reported.
(§3) Biological Example 4A is used on previously-formulated compounds, typically compounds previously formulated as an emulsifiable concentrates (EC), wherein the EC contains the herbicidal compound under test dissolved in one or more organic solvents, and wherein the EC also contains one or more surfactants or emulsifiers. In the test method, the EC containing the herbicide (plus a cloquintocet-mexyl formulation if this is also present) is generally diluted with water to form an emulsion, and the resulting emulsion is sprayed onto the emerged weed and/or crop plants.
(§4) For the testing of Compounds A-5 and A-6, each of these compounds was separately formulated into an emulsifiable concentrate containing 10% w/w of the herbicidal compound, 9% w/w of castor oil ethoxylate (an emulsifier, present as Emulsogen™EL360), 6% w/w of calcium dodecylbenzenesulfonate (linear) (an emulsifier, present as Nansa™EVM 63B), 3% w/w of tristyrylphenol ethoxylate having 16 moles of ethoxylation per mole of molecule (an emulsifier, present as Soprophor™BSU), 10% w/w of benzyl benzoate (as solvent), 20% w/w of 1-methyl-2-pyrrolidone (as solvent), and the remainder of N-octyl-2-pyrrolidone (as solvent). The solvents and surfactants/emulsifiers were first mixed together, to form a “blank” EC, and the herbicidal compound was then added to and dissolved in this solvent and emulsifier mixture to prepare the emulsifiable concentrate, to give an EC formulation/composition containing approximately 100 g/L of active herbicidal compound.
(§5) In the tests of Compounds A-5 and A-6, the cloquintocet-mexyl was pre-formulated as a formulation/composition containing 10% w/w cloquintocet-mexyl, 6% w/w Emulsogen™ EL360 (as emulsifier), 4% w/w Nansa™EVM 63B (as wetting agent), 1% w/w Drapex™39 (epoxidised soybean oil), 20% w/w 1-methyl-2-pyrrolidone (as solvent), and the remainder as Solvesso™200ND (a mixture of heavy aromatic hydrocarbons, as a solvent).
(§6) Test plants: Avena fatua (AVEFA), Lolium multiflorum (LOLMU), Setaria viridis (SETVI), Poa annua (POAAN), Alopecurus myosuroides (ALOMY). All five of these are grassy monocotyledonous weeds.

[2] = system: Lolium multiflorum (LOLMU); experiment: as above; details: 14 DAA, EC formulation, mean of two
Description: as §1, §2, §3, §4, §5, §6

[3] = system: Alopecurus myosuroides (ALOMY); experiment: as above; details: 14 DAA, EC formulation, mean of two
Description: as §1, §2, §3, §4, §5, §6

Avena fatua (AVEFA) [4] = experiment: as above; details: 14 DAA, EC formulation, mean of two
Description: as §1, §2, §3, §4, §5, §6

Setaria viridis (SETVI) = experiment: as above; details: 14 DAA, EC formulation, mean of two
Description: as §1, §2, §3, §4, §5, §6

Spring Wheat “Teal” = experiment: Biological Example 4A post-emergence phytotoxicity on cereal crops; details: 14 DAA, EC formulation, mean of two
Description: as §1, §2, §3, §4, §5

[5] = system: Spring Barley “Harrington”; experiment: as above; details: 14 DAA, EC formulation, mean of two
Description: as §1, §2, §3, §4, §5

Winter Wheat “Hereward” = experiment: as above; details: 14 DAA, EC formulation, mean of two
Description: as §1, §2, §3, §4, §5

Winter Barley “Suzuka” = experiment: as above; details: 14 DAA, EC formulation, mean of two
Description: as §1, §2, §3, §4, §5

Avena fatua (AVEFA) [6] = experiment: Biological Example 1 glasshouse screen, post-emergence herbicidal activity; details: 312 h, read-out: AVEFA percentage phytotoxicity
How it was run: (§7)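 Pots in a glasshouse (24/16°C day/night, 14 h light, 65% humidity) were sprayed one day after sowing (pre-emergence) or after 8 days (post-emergence), using acetone/water (50:50) with 0.5% Tween 20. Phytotoxicity was scored visually as % damage (0-100) 13 days after application.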

Lolium perenne (LOLPE) = experiment: as above; details: 312 h, read-out: LOLPE percentage phytotoxicity
How it was run: as §7

[7] = system: Alopecurus myosuroides (ALOMY); experiment: as above; details: 312 h, read-out: ALOMY percentage phytotoxicity
How it was run: (§8)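 Pot-grown seedlings sprayed 1 day after sowing (pre-emergence) or after 8 days' growth (post-emergence) with active ingredient in acetone/water (50:50) plus 0.5% Tween 20; glasshouse at 24/16°C day/night, 14 h light, 65% humidity. Visual % phytotoxicity (0 = no damage, 100 = total damage) scored 13 days after application.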

[8] = system: Echinochloa crus-galli (ECHCG); experiment: as above; details: 312 h, read-out: ECHCG percentage phytotoxicity
How it was run: as §8

[9] = 30 g/ha, cloquintocet-mexyl 0 g/ha
[10] = 30 g/ha, cloquintocet-mexyl 50 g/ha
[11] = 60 g/ha, cloquintocet-mexyl 0 g/ha
[12] = 60 g/ha, cloquintocet-mexyl 50 g/ha

Q: For `CC#Cc1cc(C)c(C2C(=O)C[C@@H](Cc3ccccn3)C2=O)c(C)c1` (some centres unmarked) [Compound A-6], which “post-emergence herbicidal activity against grassy monocotyledonous weeds, in words” value [1] is on record?
A: Its value is “more potent herbicidal activity”.

Q: What about the POAAN % phytotoxicity (Poa annua (POAAN); [9]) of the same molecule?
A: The POAAN % phytotoxicity was 65%.

Q: What about the POAAN % phytotoxicity (Poa annua (POAAN); [10]) of the same molecule?
A: The POAAN % phytotoxicity was 48%.

Q: What about the POAAN % phytotoxicity (Poa annua (POAAN); [11]) of the same molecule?
A: The POAAN % phytotoxicity was 94%.

Q: And the POAAN % phytotoxicity (Poa annua (POAAN); [12])?
A: The POAAN % phytotoxicity was 85%.

Q: What about the LOLMU % phytotoxicity [2, 9] of the same molecule?
A: Its LOLMU % phytotoxicity is 100%.

Q: And the LOLMU % phytotoxicity [2, 10]?
A: The LOLMU % phytotoxicity was 100%.

Q: And the LOLMU % phytotoxicity [2, 11]?
A: The LOLMU % phytotoxicity was 100%.

Q: And the LOLMU % phytotoxicity [2, 12]?
A: Its LOLMU % phytotoxicity is 100%.

Q: And the ALOMY % phytotoxicity [3, 9]?
A: Its ALOMY % phytotoxicity is 100%.

Q: And the ALOMY % phytotoxicity [3, 10]?
A: Its ALOMY % phytotoxicity is 100%.

Q: What about the ALOMY % phytotoxicity [3, 11] of the same molecule?
A: The ALOMY % phytotoxicity was 100%.

Q: And the ALOMY % phytotoxicity [3, 12]?
A: Its ALOMY % phytotoxicity is 100%.

Q: What about the AVEFA % phytotoxicity (Avena fatua (AVEFA) [4]; [9]) of the same molecule?
A: Its AVEFA % phytotoxicity is 98%.

Q: What about the AVEFA % phytotoxicity (Avena fatua (AVEFA) [4]; [10]) of the same molecule?
A: The AVEFA % phytotoxicity was 90%.

Q: And the AVEFA % phytotoxicity (Avena fatua (AVEFA) [4]; [11])?
A: The AVEFA % phytotoxicity was 100%.

Q: And the AVEFA % phytotoxicity (Avena fatua (AVEFA) [4]; [12])?
A: Its AVEFA % phytotoxicity is 99%.

Q: And the SETVI % phytotoxicity (Setaria viridis (SETVI); [9])?
A: The SETVI % phytotoxicity was 100%.

Q: And the SETVI % phytotoxicity (Setaria viridis (SETVI); [10])?
A: Its SETVI % phytotoxicity is 100%.

Q: What about the SETVI % phytotoxicity (Setaria viridis (SETVI); [11]) of the same molecule?
A: The SETVI % phytotoxicity was 100%.

Q: What about the SETVI % phytotoxicity (Setaria viridis (SETVI); [12]) of the same molecule?
A: The SETVI % phytotoxicity was 100%.

Q: What about the “Spring Wheat “Teal” phytotoxicity (%)” value (Spring Wheat “Teal”; [9]) of the same molecule?
A: The value was 78%.

Q: And the “Spring Wheat “Teal” phytotoxicity (%)” value (Spring Wheat “Teal”; [10])?
A: The value was 25%.

Q: What about the “Spring Wheat “Teal” phytotoxicity (%)” value (Spring Wheat “Teal”; [11]) of the same molecule?
A: The value was 94%.

Q: What about the “Spring Wheat “Teal” phytotoxicity (%)” value (Spring Wheat “Teal”; [12]) of the same molecule?
A: The value was 45%.

Q: What about the “Spring Barley “Harrington” phytotoxicity (%)” value [5, 9] of the same molecule?
A: Its value is 95%.

Q: And the “Spring Barley “Harrington” phytotoxicity (%)” value [5, 10]?
A: Its value is 13%.

Q: What about the “Spring Barley “Harrington” phytotoxicity (%)” value [5, 11] of the same molecule?
A: Its value is 98%.

Q: And the “Spring Barley “Harrington” phytotoxicity (%)” value [5, 12]?
A: Its value is 48%.

Q: What about the “Winter Wheat “Hereward” phytotoxicity (%)” value (Winter Wheat “Hereward”; [9]) of the same molecule?
A: The value was 65%.

Q: What about the “Winter Wheat “Hereward” phytotoxicity (%)” value (Winter Wheat “Hereward”; [10]) of the same molecule?
A: The value was 15%.

Q: What about the “Winter Wheat “Hereward” phytotoxicity (%)” value (Winter Wheat “Hereward”; [11]) of the same molecule?
A: The value was 80%.

Q: And the “Winter Wheat “Hereward” phytotoxicity (%)” value (Winter Wheat “Hereward”; [12])?
A: Its value is 20%.

Q: And the “Winter Barley “Suzuka” phytotoxicity (%)” value (Winter Barley “Suzuka”; [9])?
A: Its value is 93%.

Q: What about the “Winter Barley “Suzuka” phytotoxicity (%)” value (Winter Barley “Suzuka”; [10]) of the same molecule?
A: Its value is 10%.

Q: What about the “Winter Barley “Suzuka” phytotoxicity (%)” value (Winter Barley “Suzuka”; [11]) of the same molecule?
A: The value was 98%.

Q: And the “Winter Barley “Suzuka” phytotoxicity (%)” value (Winter Barley “Suzuka”; [12])?
A: The value was 25%.

Q: What about the pest or weed control at 250 g/ha (Avena fatua (AVEFA) [6]) of the same molecule?
A: The pest or weed control at 250 g/ha was 100%.

Q: And the pest or weed control at 250 g/ha (Lolium perenne (LOLPE))?
A: The pest or weed control at 250 g/ha was 100%.

Q: And the pest or weed control at 250 g/ha [7]?
A: The pest or weed control at 250 g/ha was 100%.

Q: And the pest or weed control at 250 g/ha [8]?
A: The pest or weed control at 250 g/ha was 100%.
